The values that follow are results of earlier work, collected in US20100167989A1, “ISOPROPOXYPHENYLMETHYL INHIBITORS OF SGLT2” (AUSPEX PHARMACEUTICALS, INC., priority 2008, published 2010).

The subject of one data set is mice. As to conditions: orally administered.
The test system of another data set is rats. Particulars: orally administered.

Take `CCOC(=O)OC[C@H]1O[C@@H](Oc2nn(C(C)C)c(C)c2Cc2ccc(OC(C)C)cc2)[C@H](O)[C@@H](O)[C@@H]1O` [remogliflozin etabonate, 4-[(4-isopropoxyphenyl)-methyl]-1-isopropyl-5-methyl-1H-pyrazol-3-yl-D-glucopyranoside]: the urinary glucose excretion result with mice and with rats was “increased urinary glucose excretion in a dose-dependent manner” throughout.
